Legend:
cortical cell cultures = assay: In vitro assay on ischemia (cortical cell cultures, potassium cyanide and 2-deoxyglucose); format: cell-based; details: 1 h, read-out: EC50 (neuroprotective effect)
Experimental: In Vitro Assay on Ischemia
To examine the in vitro effect of the compounds of formula I on ischemia, cortical cell cultures were treated with various compounds of formula I during an ischemic insult utilizing potassium cyanide and 2-deoxyglucose, and for one hour thereafter (for experimental details, see Vomov et al., J. Neurochem., Vol. 65, No. 4, pp. 1681-1691 (1995)).

[1] = test system: STZ-induced diabetic rats; assay: In vivo assay on neuropathic pain, STZ-diabetic rats (Hargreaves thermal nociception); design: species or system Sprague-Dawley rats; details: 10 mg/kg i.p. daily, FIGS. 13A and 13B
Experimental: In Vivo Assay of NAALADase Inhibitors on Neuropathic Pain
Male Sprague-Dawley rats (200-225 g) were rendered diabetic by intravenous administration of streptozotocin (“STZ”, 70 mg/kg in phosphate buffered saline). Diabetic animals were divided into five groups: one group receiving Compound A (10 mg/kg or 1 mg/kg), Compound D (10 mg/kg or 1 mg/kg) or vehicle. Another group of animals (non-STZ treated) served as non-diabetic controls. Drug/vehicle treatment was started in diabetic animals 45 days post-STZ administration. STZ-induced diabetic rats were tested for sensitivity to a heat source as soon as blood glucose levels rose to 320 mg/dl or above (30 days post STZ). The rats were then acclimated to the Hargreaves apparatus and thermal nociception was monitored using an infrared heat source directed into the dorsal surface of the hindpaw, and the time taken for the animal to remove its paw noted to the nearest 0.1 seconds (for detailed method, see Hargreaves et al., J. Biol. Chem. (1988) 263(36):19392-7). The intensity of the beam source was adjusted such that the mean latency for control animals (non-STZ treated) was approximately 10 seconds. Each animal was tested 8 times and the mean difference score (between mean non-diabetic control latency and mean diabetic latency) are graphically presented in FIGS. 13A and 13B.

BB/W diabetic rats [2] = assay: Withdrawal latency in BB/W diabetic rats (Hargreaves); format: in vivo; details: 10 mg/kg i.p. daily, vs diabetic vehicle-treated rats, from 4 weeks through six months, FIG. 17
Excerpt: (§1) Male BB/W rats (BRI, Mass) spontaneously develop a cell mediated autoimmune destruction of pancreatic B cells, resulting in onset of insulin-dependent (Type I) diabetes (Awata and Guberski et al., Endocrinology 1995 December; 136(12):5731-5). […] This renders them valuable for experimental trials of new compounds for future treatments of this major disorder. In the present study, Compound D and Compound A were examined for their ability to alter the progression of diabetic neuropathy. The rats received daily injection of Compound D or Compound A (10 mg/kg i.p.) or vehicle, starting at the onset of diabetes (hyperglycemia) and up to 6 months thereafter. Another group of non-diabetic rats also receiving vehicle were tested. All animals were continuously monitored for body weight, urine volume, blood sugar and glycated haemoglobin. In the first month of the study, all animals were tested for thermal nociception in a Hargreaves apparatus, weekly. After the first month this was done biweekly and then monthly. The testing consists of directing an infrared heat source onto the dorsal surface of the rat hindpaw and noting the time taken for the animal to remove its paw (for detailed method, see Hargreaves et al., J. Biol. Chem. 1988 Dec. 25; 263(36):19392-7). Each animal was tested 8 times and the mean withdrawal latency noted.

STZ-diabetic rats = assay: In vivo assay on diabetic neuropathy: motor and sensory nerve conduction velocity in STZ-diabetic rats; details: vs diabetic controls; for sensory nerve conduction velocity / motor nerve conduction velocity: 10 mg/kg daily; for sensory nerve conduction velocity: significant after 8 weeks (Compound A) or 12 weeks (Compound D); for motor nerve conduction velocity: significant after 12 weeks
Experimental: In Vivo Assay of NAALADase Inhibitors on Diabetic Neuropathy
Motor and sensory nerve conduction velocity was also measured in STZ-diabetic animals after 4, 8 and 12 weeks of treatment. For detailed method, see De Koning et al., Peptides 1987 May-Jun. 1987; 8(3):415-22. Briefly, stimulating needle electrodes were inserted close to the sciatic and tibial nerves with recording electrodes being placed subcutaneously over the distal foot muscles, in anesthetized rats.

BB/W diabetic rats [3] = assay: Nerve conduction velocity in BB/W diabetic rats; format: in vivo; details: 10 mg/kg daily, vs diabetic vehicle controls, from 8 weeks to six months, FIG. 18
Excerpt: as §1, with “The testing consists of directing an infrared heat source onto the dorsal surface of the rat hindpaw and noting the time taken for the animal to remove its paw (for detailed method, see Hargreaves et al., J. Biol. Chem. 1988 Dec. 25; 263(36):19392-7). Each animal was tested 8 times and the mean withdrawal latency noted.” left out
Nerve conduction velocity was also measured every two weeks through the first eight weeks of treatment and every month thereafter through to the six months of treatment. […]

ischemic cell cultures = assay: Neuroprotective effect in ischemic cell cultures with neutralizing antibodies; format: cell-based; details: in vitro ischemia model
Experimental: TGF-β neutralizing antibodies were then added to the ischemic cell cultures.

TGF-β1 [4] = assay: TGF-β1 levels in rats subjected to MCAO (microdialysis); format: in vivo; details: FIG. 6
TGF-β1 [5] = assay: Effect on TGF-β1 in in vitro ischemia model; format: cell-based; details: ischemic cell cultures, FIG. 1
Experimental: (§2) Effect of NAALADase Inhibition on TGF-β in In Vitro Ischemia Model
(§3) A NAALADase inhibitor, Compound C, was added to ischemia cell cultures to determine its effect on TGF-β levels during stroke. The experimental data, set forth

[6] = test system: chronic constrictive injury-induced rats; assay: Neuropathic pain progression, CCI model (sciatic nerve ligation, Hargreaves); format: in vivo; details: 50 mg/kg i.p. daily starting 10 days post surgery, vs vehicle, significant from 11 days of treatment, FIG. 14
Experimental: In Vivo Assay of NAALADase Inhibitors on Neuropathic Pain Progression CCI Model
Sciatic nerve ligation, consisting of 4 ligatures tied loosely around the sciatic nerve at 1 mm intervals proximal to the nerve trifurcation, was performed on rats. […] The rats were habituated to a Hargreaves apparatus. An infrared heat source was directed onto the dorsal surface of each rat's hindpaws and the time taken for the rat to withdraw its paws was noted. The difference in scores between the latency of the response for the paw on the operated side versus the paw on the unoperated control side was determined.
Animals received Compound C (50 mg/kg i.p. daily) or vehicle, starting 10 days post surgery. […] Normal (unoperated) rats had approximately equal latencies for both paws. This effect was significant starting at 11 days of drug treatment and persisted through to the end of the study (for 21 days of daily dosing).

[7] = test system: rats subjected to middle cerebral artery occlusion; assay: Neuroprotective effect in MCAO rats with TGF-β neutralizing antibodies; format: in vivo; details: FIG. 5
Excerpt: The effect of TGF-β neutralizing antibodies on the neuroprotective effect of Compound C was also studied in rats following MCAO.
One of ordinary skill in the art can appreciate that the regulation of TGF-β's by NAALADase inhibitors may have implications not only in stroke, but also in other diseases, disorders and conditions including, without limitation, neurological diseases, psychiatric diseases, demyelinating diseases, prostate cancer, inflammation, and angiogenesis.

TGF-β2 = assay: Effect on TGF-β2 in in vitro ischemia model; format: cell-based; details: ischemic cell cultures, FIG. 2
Experimental: as §2, §3

O=C(O)c1ccc(OCCCSSCCCOc2ccc(C(=O)O)cc2C(=O)O)c(C(=O)O)c1 [Compound 19, 4-[3-[[3-(2,4-dicarboxyphenoxy)propyl]-dithio]propoxy]-1,3-benzenedicarboxylic acid]
EC50 (cortical cell cultures): 2490 nM

O=C(O)c1ccc(CCS)c(C(=O)O)c1 [Compound 22, 4-(2-mercaptoethyl)-1,3-benzenedicarboxylic acid]
EC50 (cortical cell cultures): 60 nM

O=C(O)c1cc(OCCCS)cc(C(=O)O)c1 [Compound 36, 5-(3-mercaptopropoxy)-1,3-benzenedicarboxylic acid]
EC50 (cortical cell cultures): 1240 nM

O=C(O)c1cc(C(=O)O)cc(C(=O)NO)c1 [Compound 39, 5-[(hydroxyamino)-carbonyl]-1,3-benzenedicarboxylic acid]
EC50 (cortical cell cultures): 473 nM

O=C(O)c1cc(CS)cc(C(=O)O)c1 [Compound 41, 5-mercaptomethyl-1,3-benzenedicarboxylic acid]
EC50 (cortical cell cultures): 172 nM

O=C(O)CCC(CP(=O)(O)Cc1c(F)c(F)c(F)c(F)c1F)C(=O)O (centres unmarked) [Compound A, 2-[[(2,3,4,5,6-pentafluorobenzyl)hydroxyphosphinyl]methyl]pentanedioic acid]
hyperalgesic response (withdrawal latency difference score) [1]: completely reversed
withdrawal latency (BB/W diabetic rats [2]): longer withdrawal latencies
sensory nerve conduction velocity (STZ-diabetic rats): significant improvement
motor nerve conduction velocity (STZ-diabetic rats): significant improvement
nerve conduction velocity (BB/W diabetic rats [3]): significantly less severe nerve conduction deficits

O=C(O)CCC(CP(=O)(O)O)C(=O)O (centres unmarked) [Compound C, 2-(phosphonomethyl)pentanedioic acid]
neuroprotective effect with TGF-β neutralizing antibodies added (ischemic cell cultures; FIG. 3): blocked
neuroprotective effect with FGF antibody added (ischemic cell cultures; FIG. 4): did not block
TGF-β1 levels during occlusion and reperfusion (TGF-β1 [4]): significant rise
TGF-β1 concentrations (TGF-β1 [5]): increased concentrations
difference scores between the two paws (withdrawal latency) [6]: dramatically normalized
neuroprotective effect in vivo with TGF-β neutralizing antibodies [7]: significantly attenuated
TGF-β2 concentrations (TGF-β2): increased concentrations

O=C(O)CCC(CCS)C(=O)O (centres unmarked) [Compound D, 2-(2-sulfanylethyl)pentanedioic acid]
hyperalgesic response (withdrawal latency difference score) [1]: completely reversed
withdrawal latency (BB/W diabetic rats [2]): longer withdrawal latencies
motor and sensory nerve conduction velocities (STZ-diabetic rats; 1 mg/kg dose): increased
sensory nerve conduction velocity (STZ-diabetic rats): increased
motor nerve conduction velocity (STZ-diabetic rats): increased
nerve conduction velocity (BB/W diabetic rats [3]): significantly less severe nerve conduction deficits

Source: US6852750B2, “Benzenedicarboxylic acid derivatives” (Guilford Pharmaceuticals, Inc., priority 2000, dated 2005)
